Measured values reported in US11926626B2, “Heterocyclic GLP-1 agonists” (Gasherbrum Bio, Inc., priority 2020, dated 2024).

Target: GLP-1 Receptor (Homo sapiens, UniProt P43220)
Experiment: GLP-1R agonist cAMP stimulation assay (HEK293/GLP1R/CRE-Luc cells, HTRF cAMP)
Format: cell-based
Conditions: HEK293/CRE-Luc cells stably expressing GLP-1 Receptor; 30 min, 37° C.
Procedure: Activation of GLP-1 receptor is known to stimulate cyclic AMP (cAMP) production in cells which indicates primary coupling to the Gαs subunit of the G protein heterotrimeric complex.
To optimize functional activity directed toward Gαs coupling, a HEK293/CRE-Luc cell line developed by HDB stably expressing the GLP-1 Receptor was used. […] 1×10^5 cells/mL HEK293/GLP1R/CRE-LUC(HD Biosciences) cell suspensions prepared with assay buffer[DPBS containing 0.5 mM IBMX (Sigma, Cat #I5879) and 0.1% BSA (GENVIEW, Cat #FA016-100g)], 10 uL cell suspensions were added to each well of previous generated assay plate which already contains 50 nl compound at 200×concentration using ThermoFisher Multidrop Combi (1000 cells/well). Seal the plate and incubate at 37° C. with 5% CO2 for 30 min.
After incubation the cAMP assay signal was generated using cAMP dynamic 2 Kit (Cisbio). 5 μL cAMP-d2 working solution was added to each well, followed with 5 μL Anti-cAMP antibody-cryptate working solution added to each well using ThermoFisher Multidrop Combi. Incubate at room temperature for 1 hour protected from light.

Chain of GLP-1 Receptor (P43220 24-463): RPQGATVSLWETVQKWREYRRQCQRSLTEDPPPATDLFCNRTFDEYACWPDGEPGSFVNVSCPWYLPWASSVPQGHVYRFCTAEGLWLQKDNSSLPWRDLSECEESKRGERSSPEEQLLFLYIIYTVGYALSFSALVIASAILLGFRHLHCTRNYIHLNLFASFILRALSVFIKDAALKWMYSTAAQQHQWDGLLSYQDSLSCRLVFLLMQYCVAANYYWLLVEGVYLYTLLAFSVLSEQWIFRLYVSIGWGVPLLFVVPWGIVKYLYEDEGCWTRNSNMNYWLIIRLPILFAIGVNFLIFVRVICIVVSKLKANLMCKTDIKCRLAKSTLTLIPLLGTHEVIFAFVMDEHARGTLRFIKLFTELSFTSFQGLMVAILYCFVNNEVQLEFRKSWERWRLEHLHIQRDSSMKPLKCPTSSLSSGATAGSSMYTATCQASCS

Structure (SMILES)	GLP1R cAMP Stimulation DR: pEC50
O=C(O)c1ccc2nc(C[C@H]3CC[C@H](Oc4ccnc(Cc5ccc(Cl)cc5F)n4)CC3)n(C[C@@H]3CCO3)c2n1 [Compound 175b, 3-{[(2S)-oxetan-2-yl]methyl}-2-{[trans-4-({2-[(4-chloro-2-fluorophenyl)methyl]pyrimidin-4-yl}oxy)cyclohexyl]methyl}-3H-imidazo[4,5-b]pyridine-5-carboxylic acid]	10.2
O=C(O)c1ccc2nc(C[C@H]3CC[C@H](Oc4ccnc(Cc5ccc(Cl)cc5)n4)CC3)n(C[C@@H]3CCO3)c2c1 [Compound 176a, 1-{[(2S)-oxetan-2-yl]methyl}-2-{[trans-4-({2-[(4-chlorophenyl)methyl]pyrimidin-4-yl}oxy)cyclohexyl]methyl}-1H-1,3-benzodiazole-6-carboxylic acid]	9.4
O=C(O)c1ccc2nc(C[C@H]3CC[C@H](Oc4ccnc(Cc5ccc(Cl)cc5)n4)CC3)n(C[C@@H]3CCO3)c2n1 [Compound 177a, 3-{[(2S)-oxetan-2-yl]methyl}-2-{[trans-4-({2-[(4-chlorophenyl)methyl]pyrimidin-4-yl}oxy)cyclohexyl]methyl}-3H-imidazo[4,5-b]pyridine-5-carboxylic acid]	10.4
COCCn1c(C[C@H]2CC[C@H](Oc3ccnc(Cc4ccc(Cl)cc4)n3)CC2)nc2ccc(C(=O)O)nc21 [Compound 179a, 3-(2-methoxyethyl)-2-{[trans-4-({2-[(4-chlorophenyl)methyl]pyrimidin-4-yl}oxy)cyclohexyl]methyl}-3H-imidazo[4,5-b]pyridine-5-carboxylic acid]	8.6
Cn1c(C[C@H]2CC[C@H](Oc3ccnc(Cc4ccc(Cl)cc4)n3)CC2)nc2ccc(C(=O)O)nc21 [Compound 180a, 3-methyl-2-{[trans-4-({2-[(4-chlorophenyl)methyl]pyrimidin-4-yl}oxy)cyclohexyl]methyl}-3H-imidazo[4,5-b]pyridine-5-carboxylic acid]	8.6
O=C(O)c1ccc2nc(C[C@H]3CC[C@H](Oc4cccc(Cc5ccc(Cl)cc5)n4)CC3)n(C[C@@H]3CCO3)c2n1 [Compound 181a, 3-{[(2S)-oxetan-2-yl]methyl}-2-{[trans-4-({6-[(4-chlorophenyl)methyl]pyridin-2-yl}oxy)cyclohexyl]methyl}-3H-imidazo[4,5-b]pyridine-5-carboxylic acid]	10.1
N#Cc1ccc(Cc2nccc(O[C@H]3CC[C@H](Cc4nc5ccc(C(=O)O)nc5n4C[C@@H]4CCO4)CC3)n2)cc1 [Compound 182a, 3-{[(2S)-oxetan-2-yl]methyl}-2-{[trans-4-({2-[(4-cyanophenyl)methyl]pyrimidin-4-yl}oxy)cyclohexyl]methyl}-3H-imidazo[4,5-b]pyridine-5-carboxylic acid]	10.2
O=C(O)c1ccc2nc(CN3CCC(Oc4nn(Cc5ccc(Cl)cc5F)cc4Cl)CC3)n(C[C@@H]3CCO3)c2n1 [Compound 183a, 2-{[4-({4-chloro-1-[(4-chloro-2-fluorophenyl)methyl]-1H-pyrazol-3-yl}oxy)piperidin-1-yl]methyl}-3-{[(2S)-oxetan-2-yl]methyl}-3H-imidazo[4,5-b]pyridine-5-carboxylic acid]	9.1
O=C(O)c1ccc2nc(CN3CCC(n4ncc5ccc(Cc6ccc(Cl)cc6F)nc54)CC3)n(C[C@@H]3CCO3)c2n1 [Compound 185a, 2-[(4-{6-[(4-chloro-2-fluorophenyl)methyl]-1H-pyrazolo[3,4-b]pyridin-1-yl}piperidin-1-yl)methyl]-3-{[(2S)-oxetan-2-yl]methyl}-3H-imidazo[4,5-b]pyridine-5-carboxylic acid]	9.3
O=C(O)c1ccc2nc(Cc3ccc(Oc4ccnc(Cc5ccc(Cl)cc5)n4)cc3)n(C[C@@H]3CCO3)c2n1 [Compound 186a, 2-{[4-({2-[(4-chlorophenyl)methyl]pyrimidin-4-yl}oxy)phenyl]methyl}-3-{[(2S)-oxetan-2-yl]methyl}-3H-imidazo[4,5-b]pyridine-5-carboxylic acid]	9.2
O=C(O)c1ccc2nc(Cc3ccc(Oc4ccnc(Cc5ccc(Cl)cc5)n4)cc3)n(C[C@@H]3CCO3)c2c1 [Compound 187a, 2-{[4-({2-[(4-chlorophenyl)methyl]pyrimidin-4-yl}oxy)phenyl]methyl}-1-{[(2S)-oxetan-2-yl]methyl}-1H-1,3-benzodiazole-6-carboxylic acid]	8.9

The next lines start with the values.

GLP1R cAMP Stimulation DR: pEC50	Structure (SMILES)
10.3	O=C(O)c1ccc2nc(C[C@H]3CC[C@H](Oc4nc(Cc5ccc(Cl)cc5)ncc4F)CC3)n(C[C@@H]3CCO3)c2n1 [Compound 188a, 3-{[(2S)-oxetan-2-yl]methyl}-2-{[trans-4-({2-[(4-chlorophenyl)methyl]-5-fluoropyrimidin-4-yl}oxy)cyclohexyl]methyl}-3H-imidazo[4,5-b]pyridine-5-carboxylic acid]
9.2	O=C(O)c1ccc2nc(Cc3ccc(Oc4nc(Cc5ccc(Cl)cc5)ncc4F)cc3)n(C[C@@H]3CCO3)c2n1 [Compound 189a, 2-{[4-({2-[(4-chlorophenyl)methyl]-5-fluoropyrimidin-4-yl}oxy)phenyl]methyl}-3-{[(2S)-oxetan-2-yl]methyl}-3H-imidazo[4,5-b]pyridine-5-carboxylic acid]
9.4	O=C(O)c1ccc2nc(Cc3ccc(Oc4nc(Cc5ccc(Cl)cc5)ncc4F)cc3F)n(C[C@@H]3CCO3)c2n1 [Compound 190a, 2-{[4-({2-[(4-chlorophenyl)methyl]-5-fluoropyrimidin-4-yl}oxy)-2-fluorophenyl]methyl}-3-{[(2S)-oxetan-2-yl]methyl}-3H-imidazo[4,5-b]pyridine-5-carboxylic acid]
9.5	O=C(O)c1ccc2nc(Cc3ccc(Oc4nc(Cc5ccc(Cl)cc5)ncc4F)cc3F)n(C[C@@H]3CCO3)c2c1 [Compound 191a, 2-{[4-({2-[(4-chlorophenyl)methyl]-5-fluoropyrimidin-4-yl}oxy)-2-fluorophenyl]methyl}-1-{[(2S)-oxetan-2-yl]methyl}-1H-1,3-benzodiazole-6-carboxylic acid]
6.9	O=C(O)c1ccc2nc(CN3CC=C(c4cnc5ccc(Cc6ccc(Cl)cc6F)nn45)CC3)n(C[C@@H]3CCO3)c2n1 [Compound 192a, 2-[(4-{6-[(4-chloro-2-fluorophenyl)methyl]imidazo[1,2-b]pyridazin-3-yl}-1,2,3,6-tetrahydropyridin-1-yl)methyl]-3-{[(2S)-oxetan-2-yl]methyl}-3H-imidazo[4,5-b]pyridine-5-carboxylic acid]
9.7	O=C(O)c1ccc2nc(CN3CCC(Oc4ccnc(Cc5ccc(Cl)cc5)n4)CC3)n(Cc3cn[nH]c3)c2n1 [Compound 193, 3-((1H-pyrazol-4-yl)methyl)-2-((4-((2-(4-chlorobenzyl)pyrimidin-4-yl)oxy)piperidin-1-yl)methyl)-3H-imidazo[4,5-b]pyridine-5-carboxylic acid]
8.5	CCOCCn1c(CN2CCC(Oc3ccnc(Cc4ccc(Cl)cc4)n3)CC2)nc2ccc(C(=O)O)nc21 [Compound 194, 2-((4-((2-(4-chlorobenzyl)pyrimidin-4-yl)oxy)piperidin-1-yl)methyl)-3-(2-ethoxyethyl)-3H-imidazo[4,5-b]pyridine-5-carboxylic acid]
